In patent publication US20170202847A1, “METHODS FOR THE TREATMENT OF TUMORS” (The University of North Carolina at Chapel Hill, priority 2014, published 2017):
Entries after “also recorded” stand apart in the source; their conditions may differ. Like-named read-outs stand apart in the source and are kept apart here.

Legend:
Mer = target: T1, Mer (Homo sapiens, UniProt Q12866); test: Mer autophosphorylation in NSCLC cell lines by immunoblot; assay type: cell-based; conditions: numerous cell lines
T1 sequence (Q12866 21-999): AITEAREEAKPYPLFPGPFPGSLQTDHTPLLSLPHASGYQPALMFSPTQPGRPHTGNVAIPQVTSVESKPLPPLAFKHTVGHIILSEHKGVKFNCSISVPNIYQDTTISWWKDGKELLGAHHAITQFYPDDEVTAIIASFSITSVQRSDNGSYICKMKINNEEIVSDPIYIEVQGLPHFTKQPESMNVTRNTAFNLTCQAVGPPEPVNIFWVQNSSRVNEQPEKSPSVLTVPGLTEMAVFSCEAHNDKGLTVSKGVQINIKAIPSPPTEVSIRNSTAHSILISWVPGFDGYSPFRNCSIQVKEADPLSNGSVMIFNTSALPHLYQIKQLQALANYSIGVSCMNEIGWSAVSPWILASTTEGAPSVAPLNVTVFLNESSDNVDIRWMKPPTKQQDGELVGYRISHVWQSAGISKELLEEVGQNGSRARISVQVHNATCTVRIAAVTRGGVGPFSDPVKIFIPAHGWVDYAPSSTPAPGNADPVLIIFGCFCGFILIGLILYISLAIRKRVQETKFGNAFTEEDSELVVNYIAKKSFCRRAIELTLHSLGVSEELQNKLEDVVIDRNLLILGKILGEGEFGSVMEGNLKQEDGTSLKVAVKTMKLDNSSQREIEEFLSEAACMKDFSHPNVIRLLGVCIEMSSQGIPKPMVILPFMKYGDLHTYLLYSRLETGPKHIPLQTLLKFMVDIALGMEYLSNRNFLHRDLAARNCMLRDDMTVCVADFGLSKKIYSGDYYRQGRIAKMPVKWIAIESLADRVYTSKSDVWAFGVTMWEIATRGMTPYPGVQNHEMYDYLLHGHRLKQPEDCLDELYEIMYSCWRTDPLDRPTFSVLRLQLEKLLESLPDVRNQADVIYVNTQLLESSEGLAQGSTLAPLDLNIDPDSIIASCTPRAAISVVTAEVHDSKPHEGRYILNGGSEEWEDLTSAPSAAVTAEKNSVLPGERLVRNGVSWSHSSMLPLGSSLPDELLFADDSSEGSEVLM
Method: (§1) The effects of Mer TKI treatment on activation of Mer and related members of the TAM-family of kinases, Axl and Tyro3, and effects on downstream proliferative and pro-survival signaling pathways were analyzed by immunoblot. In addition, Mer TKI-mediated anti-tumor activity was determined in a panel of NSCLC cell lines using soft-agar and clonogenic assays. Cells were stained with YoPro-1-iodide and propidium iodide dyes and induction of apoptosis was determined using flow cytometry. Finally, a subcutaneous murine xenograft model was employed to determine therapeutic effects in vivo.

[1] = system: PyVmT mammary gland tumor cells; test: Orthotopic PyVmT mammary gland tumor model in immunocompetent C57Bl/6 mice; assay type: in vivo
Method: FIG. 10A is an immunoblot showing the presence of Mer TK in J774 murine macrophage and absence in PyVmT murine mammary tumor cells. FIGS. 10B and 10C illustrate the results from an immune-competent orthotopic model of Mer-negative breast cancer. […] FIG. 10B is a graph showing tumor volume (mm^3) verses days post-tumor injection.
FIG. 21A is a timeline illustrating a mouse model using PyVmT cells. […] Mice were dosed from day −2 to day 28. At day zero, 1×10^6 PyVmT cells were implanted into the inguinal mammary fatpad of mice. Tumor volumes were measured at days 16, 19, 21, 23, 26 and 28. Day 28 was the end of the study. FIG. 21B is a graph illustrating tumor volume […] verses days post-tumor injection.
See, FIGS. 10A-10C and FIGS. 21A and 21B.

[2] = system: HMCB and G361 melanoma cell lines; test: Apoptosis of melanoma cell lines by flow cytometry (YO-PRO-1 iodide/propidium iodide); assay type: cell-based
From the text: (§2) See, FIG. 25A and FIG. 25B.

[3] = system: Colo699 (Mer+, FGFR+) and H226 (Mer+, FGFR+) NSCLC cells; test: Soft agar colony formation of NSCLC cells, Mer TKI and FGFR TKI; assay type: cell-based; conditions: 14 days
Pharmacokinetics in mice = conditions: mouse, in vivo
Colo699 cells = test: Subcutaneous murine xenograft model of NSCLC; assay type: in vivo
Method: FIG. 18A is a graph illustrating tumor volume verses days treated. Colo699 tumor cells were subcutaneously implanted in mice.
as §1

TRIA = TRIA tumors injected into NSG mice; assay type: in vivo; conditions: linear regression p<0.001
Method: FIG. 20A is a graph of tumor volume (mm^3) verses days. This is treatment of the intact GEMM. FIG. 20B is a graph illustrating the results from TRIA injected into NSG mice. The mice were then treated with no drug or UNC2025. […] In FIGS. 20A and 20B, both treated slopes were statistically significant compared to untreated slopes using linear regression p<0.001. FIG. 20C; Pten/Braf genetically engineered mice were treated with no drug or UNC2025. The graph illustrates tumor volumes (mm^3) verses days on treatment.

[4] = system: B-RAF wildtype (HMCB) and B-RAF mutant (G361) cell lines; test: Colony formation of melanoma cell lines; assay type: cell-based; conditions: for colony formation: HMCB and G361
From the text: as §2

[5] = Dose-finding and tolerability in mice, drug in chow; assay type: in vivo; conditions: for MTD: mouse, in vivo
Method: […]. AZD6244 is a MEK inhibitor that was administered in mouse chow at a predicted dose of 37 mg/kg (MTD). UNC2025 was administered in chow at a predicted dose of 120 mg/kg (MTD). […]. AZD6244 is a MEK inhibitor that was dosed in mouse chow at a predicted dose of 37 mg/kg (MTD). UNC2025 was dosed in chow at a predicted dose of 120 mg/kg (MTD).
. Once daily, oral dosing inhibits the growth of Mer-expressing leukemia and NSCLC xenografts. […]. After dose-finding studies in wild-type mice established an MTD, the inhibitor was given at 120 mpk/d in mouse chow. […]. The overall response was 10% (partial responses and stable disease). There were no complete responses. […]. […] See, FIG. 16A and FIG. 16B.

[6] = system: MER-expressing ALL cell lines; test: Apoptosis and colony formation in methylcellulose of ALL cell lines; assay type: cell-based
[7] = system: murine model of breast cancer (C3TAg); test: Murine model of breast cancer (C3TAg); assay type: in vivo; conditions: 120 mpk/d in chow
[8] = system: RAS-driven, INK4a/Arf null melanoma GEMM (TRIA); test: RAS-driven, INK4a/Arf null melanoma GEMM (TRIA); assay type: in vivo
Method: FIG. 14 is a waterfall plot showing percent change in tumor volumes verses days of treatment in the TRIA GEM model of melanoma. Mice were treated with UNC2025, AZD6244, Carbo/Taxol or received no treatment.
After dose-finding studies in wild-type mice established an MTD, the inhibitor was given at 120 mpk/d in mouse chow.

[9] = system: ERK, AKT, and STAT6 signaling downstream of MER; conditions: immunoblot
Method: Downstream signaling was evaluated by immunoblotting, and induction of apoptosis was determined by flow cytometry in cells stained with YO-PRO®-1 iodide and propidium iodide.

[10] = mouse, in vivo
SKMEL119 melanoma cells = test: Invasion into collagen matrix; assay type: cell-based
[11] = system: MER-positive (Kasumi-1 and U937) AML cell lines; test: Apoptosis of MER-positive AML cell lines by flow cytometry; assay type: cell-based; conditions: vehicle 20±10%, p<0.01
From the text: (§3) FLT-3 and MER tyrosine kinases have been previously identified as potential targets in the treatment of acute myeloid leukemia (AML). Expression of FLT-3 internal tandem duplication (ITD) occurs in ˜30-40% of AML patient samples and MER overexpression has been detected in ˜80-100%. In this example, a novel first-in-class small molecule inhibitor that has potent activity against both of these kinases and mediates growth inhibition or apoptosis of cell lines and patient myeloblasts is disclosed. […] See, FIGS. 4A-F.

AKT and STAT6 activation = AKT and STAT6 activation in AML cell lines; assay type: cell-based; conditions: short term exposure; cell lines expressing FLT3-ITD or MER
From the text: as §3

[12] = system: MER-positive (Kasumi-1 and U937) AML cell lines; test: Soft agar colony formation of MER-positive AML cell lines; assay type: cell-based; conditions: vehicle = 100, p<0.01
From the text: as §3

[13] = system: FLT3-ITD-positive (Molm-13 and MV4; 11) AML cell lines; test: Apoptosis of FLT3-ITD AML cell lines by flow cytometry; assay type: cell-based; conditions: vehicle 10±2%, p<0.001
From the text: as §3

[14] = system: primary AML patient samples (MER and/or FLT3-ITD positive); test: Primary AML patient samples: phosphorylation, apoptosis, colony formation in methylcellulose; assay type: cell-based, human
From the text: as §3

[15] = compared to vehicle treated tumor-bearing mice

## CCCCNc1ncc2c(-c3ccc(CN4CCN(C)CC4)cc3)cn([C@H]3CC[C@H](O)CC3)c2n1 [MRX6313]
Mer
  concentrations that blocked Mer autophosphorylation: sub-micromolar
[1]; 3 mg/kg twice daily by oral gavage
  RNA-sequence data on immune cells: increases pro-inflammatory cytokines in CD11b^+ cells and activates CD8^+ T cell effector function
[1]; after four weeks of daily treatment
  primary tumor growth reduction compared to vehicle: two-fold
[1]; [15]
  reduction of serum IL-4 level: 30%
  reduction of serum IL-10 level: 20%
[2]
  apoptosis: induced apoptosis
[3]
  colony formation in soft agar: inhibited
Pharmacokinetics in mice
  oral bioavailability / pharmacokinetics: orally bioavailable; also recorded: favorable pharmacokinetics
Colo699 cells
  tumor volume: significant decrease in tumor volume
B-ALL xenograft; days after inoculation with tumor cells, vehicle 27 days, p<0.0001
  median survival: 70 days
B-ALL xenograft; minimal residual disease model
  tumor burden: dose dependent reduction in tumor burden
TRIA
  tumor volumes versus control: significantly reduced
[4]; B-RAF wild-type and B-RAF mutant cell lines
  concentration resulting in an almost complete block in colony formation: ≥ 300 nM
[4]
  colony formation: reduced colony growth
[5]; 120 mpk/d in mouse chow
  Mer pharmacodynamics marker (platelet aggregation): inhibition of second phase platelet aggregation
  weight loss: did not cause weight loss
[5]; oral, administered in chow, read-out: MTD, predicted dose in mouse chow
  MTD: 120 mg/kg
[6]
  apoptosis and colony-formation in methylcellulose: induction of apoptosis and reduced colony-formation
[7]
  single agent activity: did not exhibit single agent activity
[8]; 120 mpk/d in chow
  toxicity in the TRIA model: mild, well tolerated toxicity
[8]; TRIA, 8 mice
  complete responses (CRs): 3
[8]; TRIA, 120 mpk/d in chow
  single agent activity: pronounced single agent activity
[8]; versus AZD6244, Carbo/Taxol, no treatment
  percent change in tumor volumes, waterfall plot, ranking: best response
[9]
  downstream signaling: abrogates signaling downstream of MER

## CCCCNc1ncc2c(-c3ccc(S(=O)(=O)N4CCOCC4)cc3)nn(C3CCC(O)CC3)c2n1 (stereo not drawn) [UNC1062]
[10]
  oral bioavailability / pharmacokinetics: orally bioavailable
SKMEL119 melanoma cells
  invasion into collagen matrix: reduced invasion
[4]
  colony formation: reduced colony formation

## COc1cc(CCc2cc(NC(=O)c3ccc(N4CC(C)NC(C)C4)cc3)n[nH]2)cc(OC)c1 (stereo not drawn) [AZD-4547, reference compound]
[3]
  colony formation in soft agar: inhibited

## Cn1cnc2c(F)c(Nc3ccc(Br)cc3Cl)c(C(=O)NOCCO)cc21 [AZD6244, reference compound]
[5]
  MTD: 37 mg/kg

## CCCCNc1ncc2c(-c3ccc(S(=O)(=O)N4CCOCC4)cc3)cn(C3CCC(O)CC3)c2n1 (stereo not drawn) [UNC1666]
[11]
  apoptotic cells: 66±10%
AKT and STAT6 activation
  AKT and STAT6 activation: dose-dependent decrease
[12]
  relative colony counts: 34±15
[13]
  apoptotic cells: 90±6%
[14]; leukemic blasts from a patient with AML, 50, 100 and 300 nM
  Mer and Flt3 kinase phosphorylation and downstream signaling: abrogates
[14]; six primary patient samples
  colony formation in methylcellulose: near complete inhibition of colony formation
  induction of apoptosis: dose-dependent induction of apoptosis
